According to US20260132123A1, “ABAD INHIBITOR COMPOUNDS” (UNIVERSITY COURT OF THE UNIVERSITY OF ST ANDREWS, priority 2021, published 2026):

How the values were obtained:
17β-HSD10 = biological target: T1, 17β-HSD10 (Homo sapiens, UniProt Q99714); assay: 17β-HSD10 (ABAD) enzyme inhibition assay, NADH oxidation read at 340 nm (primary screen and dose response); type: biochemical; settings: for EC50 / Max. Effect (%) / Hill Slope / Max. Fit / Min. Fit: recombinant 17βHSD10 enzyme assay; for Hill Slope / Max. Fit / Min. Fit: curve fit
T1 construct: Histev (histidine tag with TEV site) (N, cleaved yes); made in house; host or cells: E. coli BL21-CodonPlus
T1 sequence (Q99714 1-261): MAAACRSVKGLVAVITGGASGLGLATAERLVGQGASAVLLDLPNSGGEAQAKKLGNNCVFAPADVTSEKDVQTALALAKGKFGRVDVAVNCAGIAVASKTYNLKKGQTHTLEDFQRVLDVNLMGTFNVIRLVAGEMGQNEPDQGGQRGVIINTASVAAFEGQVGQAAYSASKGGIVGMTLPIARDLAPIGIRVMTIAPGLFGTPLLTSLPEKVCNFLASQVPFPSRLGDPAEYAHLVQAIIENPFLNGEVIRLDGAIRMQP
Summary of the method: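 Tag-cleaved recombinant human 17β-HSD10 (2.5 nM) preincubated 15 min with compound in Tris pH 7.4, NaCl, DTT, Tween, BSA (catalase in some runs), then 100 μM acetoacetyl-CoA and NADH added. NADH oxidation by A340 fall: 35 min endpoint for screening at 10 μM; continuous 45 min for dose response.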

mtsABAD HEK293 cells [1] = assay: Alamar Blue cell viability assay; type: cell-based, human; settings: 50 μM compound
Protocol: Cell viability was assessed via fluorescence change using the commercially available Alamar Blue from ThermoFisher. HEK293 cells overexpressing mts17β-HSD10 were cultured in phenol-red free media (10% FBS, 1 mM sodium pyruvate, 100 units penicillin, 0.1 mg/mL streptomycin and 2 mM L-glutamine) and seeded at a density of 10,000 cells per well (100 μL, 96 well plates). […] Treated cells were then incubated at 37° C. and CO2 (5%) for 24 hours before the assay was performed as per the manufacturer's instructions. Fluorescence was measured at 530 nm excitation and 590 nm emission using a SpectraMaxM2e spectrophotometer.

mtsABAD HEK293 cells [2] = assay: Lactate dehydrogenase (LDH) cytotoxicity assay; type: cell-based, human; settings: 50 μM compound
Protocol: Cell cytotoxicity was assessed via the measurement of lactate dehydrogenase leakage into the culture medium using a commercially available kit from Pierce (Thermo Scientific cat no. 88953). This was carried out in accordance with the kit guidelines, with the activity of Lactate Dehydrogenase (LDH) being calculated from the change in absorbance at […] as NADH is reduced. HEK293 cells overexpressing mts17β-HSD10 were cultured in phenol-red free media (10% fetal bovine serum (FBS), 1 mM sodium pyruvate, 100 units penicillin, 0.1 mg/mL streptomycin and 2 mM L-glutamine) and seeded at a density of 10,000 cells per well (100 μL, 96 well plates). […] Treated cells were incubated at 37° C. and CO2 (5%) for 24 hours before the LDH assay was performed as per the manufacturer's instructions. Spontaneous control (water) and maximum control (lysis buffer) used in accordance with the kit guide. Absorbance was measured at 490 nm and 680 nm using a SpectraMaxM2e spectrophotometer. The measured LDH activity was used to calculate % cytotoxicity using the following equation: […]

| EC50 (17β-HSD10) | Max. Effect (%) (17β-HSD10) | Hill Slope (17β-HSD10) | Max. Fit (17β-HSD10) | Min. Fit (17β-HSD10) | fold less potent than ESC1002033 (17β-HSD10) | Structure (SMILES) | Alamar Blue % Viability (50 μM Dose) (mtsABAD HEK293 cells [1]) | LDH % Toxicity (50 μM Dose) (mtsABAD HEK293 cells [2]) | 17β-HSD10 / ABAD activity in words (SAR discussion) (17β-HSD10) | Alamar Blue % Viability (50 μM Dose) (mtsABAD HEK293 cells [1]; listed as ESC1002203-01) | LDH % Toxicity (50 μM Dose) (mtsABAD HEK293 cells [2]; listed as ESC1002203-01) | Alamar Blue % Viability (50 μM Dose) (mtsABAD HEK293 cells [1]; listed as ESC1002205-01) | LDH % Toxicity (50 μM Dose) (mtsABAD HEK293 cells [2]; listed as ESC1002205-01) | Alamar Blue % Viability (50 μM Dose) (mtsABAD HEK293 cells [1]; listed as ESC1002206-01) | LDH % Toxicity (50 μM Dose) (mtsABAD HEK293 cells [2]; listed as ESC1002206-01) |
| --- | --- | --- | --- | --- | --- | --- | --- | --- | --- | --- | --- | --- | --- | --- | --- |
| 1230 nM | 93% | 1 | 98 | 0 |  | Cc1ccsc1C(=O)N1CCC[C@@H]1c1ccccc1-c1cn[nH]c1 [ESC1002092] | 80.606% | 4.240% |  |  |  |  |  |  |  |
| > 20000 nM | 0% |  |  |  |  | COCCn1cnc(CN(C)c2cccc(NC(=O)c3ccccc3F)c2)c1 [ESC1002163] | 78.775% | 4.975% |  |  |  |  |  |  |  |
| > 20000 nM | 2% |  |  |  |  | COCCN(C(=O)c1ccccc1F)c1cccc(N(C)Cc2cn(CCOC)cn2)c1 [ESC1002164, 2-fluoro-N-(2-methoxyethyl)-N-[3-[[1-(2-methoxyethyl)imidazol-4-yl]methyl-methylamino]phenyl]benzamide] | 77.951% | 5.093% |  |  |  |  |  |  |  |
| 1660 nM | 94% | 1 | 100 | 0 |  | CC(C)CN(C(=O)C(C)C)c1cccc(N(C)Cc2cnc[nH]2)c1 [ESC1002165, N-[3-[1H-imidazol-5-ylmethyl(methyl)amino]phenyl]-N-isobutyl-2-methyl-propanamide] | 88.291% | 4.074% |  |  |  |  |  |  |  |
| 955 nM | 99% | 0.93 | 104 | 0 |  | CC(C)CN(C(=O)C1CCCCC1)c1cccc(N(C)Cc2cnc[nH]2)c1 [ESC1002166, N-[3-[1H-imidazol-5-ylmethyl(methyl)amino]phenyl]-N-isobutyl-cyclohexanecarboxamide] | 82.237% | 4.554% | less potent |  |  |  |  |  |  |
| 12600 nM | 62% | 1 | 100 | 0 |  | CC(C)CN(C(=O)Cc1ccccc1)c1cccc(N(C)Cc2cnc[nH]2)c1 [ESC1002167, N-[3-[1H-imidazol-5-ylmethyl(methyl)amino]phenyl]-N-isobutyl-2-phenyl-acetamide] | 79.269% | 4.492% |  |  |  |  |  |  |  |
| 8910 nM | 72% | 1.1 | 100 | 0 |  | CC(C)CN(C(=O)CCc1ccccc1)c1cccc(N(C)Cc2cnc[nH]2)c1 [ESC1002168, N-[3-[1H-imidazol-5-ylmethyl(methyl)amino]phenyl]-N-isobutyl-3-phenyl-propanamide] | 82.648% | 4.285% |  |  |  |  |  |  |  |
| 646 nM | 97% | 1.1 | 98 | 0 |  | CC(C)CN(C(=O)c1ccccc1)c1cccc(N(C)Cc2cnc[nH]2)c1 [ESC1002169, N-[3-[1H-imidazol-5-ylmethyl(methyl)amino]phenyl]-N-isobutyl-benzamide] | 84.229% | 4.554% |  |  |  |  |  |  |  |
| 501 nM | 99% | 1.1 | 98 | 0 |  | Cc1n[nH]c(Cc2ccccc2)c1-c1ccccc1O [ESC1002170, 2-(5-benzyl-3-methyl-1H-pyrazol-4-yl) phenol] | 79.141% | 5.192% |  |  |  |  |  |  |  |
| > 20000 nM | 34% |  |  |  |  | CC(=O)N(CC(C)C)c1cccc(N(C)Cc2cnc[nH]2)c1 [ESC1002171, N-[3-[1H-imidazol-5-ylmethyl(methyl)amino]phenyl]-N-isobutyl-acetamide] | 86.843% | 5.933% |  |  |  |  |  |  |  |
| 2820 nM | 87% | 1.1 | 96 | 0 |  | CC(C)CN(C(=O)c1cccc2ccccc12)c1cccc(N(C)Cc2cnc[nH]2)c1 [ESC1002172, N-[3-[1H-imidazol-5-ylmethyl(methyl)amino]phenyl]-N-isobutyl-naphthalene-1-carboxamide] | 85.337% | 5.472% |  |  |  |  |  |  |  |
| 331 nM | 99% | 0.8 | 103 | 0 |  | COc1ccc(C(=O)N(CC(C)C)c2cccc(N(C)Cc3cnc[nH]3)c2)cc1 [ESC1002182, N-[3-[1H-imidazol-5-ylmethyl(methyl)amino]phenyl]-N-isobutyl-4-methoxy-benzamide] | 87.643% | 4.733% |  |  |  |  |  |  |  |
| 776 nM | 95% | 1.2 | 97 | 0 |  | CC(C)CN(C(=O)c1ccc(Cl)cc1)c1cccc(N(C)Cc2cnc[nH]2)c1 [ESC1002183, 4-chloro-N-[3-[1H-imidazol-5-ylmethyl(methyl)amino]phenyl]-N-isobutyl-benzamide] | 89.373% | 5.082% |  |  |  |  |  |  |  |
| > 20000 nM | 13% |  |  |  |  | CC(C)CN(C(=O)c1ccccc1F)c1cccc(N(C)Cc2cncn2C)c1 [ESC1002199] | 89.524% | 5.028% |  |  |  |  |  |  |  |
| 9120 nM | 67% | 1 | 96 | 0 |  | CC(C)CN(C(=O)c1ccccc1F)c1cccc(N(C)Cc2cn(C)cn2)c1 [ESC1002200] | 79.220% | 5.136% |  |  |  |  |  |  |  |
| > 20000 nM | 41% |  |  |  |  | CC(C)CN(C(=O)c1ccccc1F)c1cccc(N(C)Cc2ncc[nH]2)c1 [ESC1002201] | 80.481% | 5.842% |  |  |  |  |  |  |  |
| 10000 nM | 57% | 1.3 | 79 | 0 |  | CC(C)CN(C(=O)c1ccccc1F)c1cccc(N(C)Cc2nccn2C)c1 [ESC1002202] | 81.531% | 2.542% |  |  |  |  |  |  |  |
| 525 nM | 97% | 1.1 | 98 | 0 | approximately 3 fold | Cc1ncc(CN(C)c2cccc(N(CC(C)C)C(=O)c3ccccc3F)c2)[nH]1 [ESC1002203] |  |  | only slightly reduced ABAD inhibition levels | 87.491% | 6.638% |  |  |  |  |
|  | 96% | 1.1 | 97 | 0 |  | CC(C)CN(C(=O)c1ccccc1F)c1cccc(N(C)Cc2ccn[nH]2)c1 [ESC1002205] |  |  |  |  |  | 95.933% | 5.840% |  |  |
|  | 79% | 0.93 | 107 | 0 |  | CC(C)CN(C(=O)c1ccccc1F)c1cccc(N(C)Cc2ccn[nH]2)c1 [ESC1002206] |  |  |  |  |  |  |  | 95.609% | 5.918% |
